# Measured values reported in patent US5811278A, “Dipeptidyl peptidase IV from Xanthomonas maltophilia and process for producing the same” (Ajinomoto Co., Inc., priority 1995, dated 1998).
# Where two headings read alike, the source gives them in different places. Where a SMILES comes first, the peptide text is derived from it. The star is where a group is joined. βNA = c1ccc2cc(N*)ccc2c1
# Tests used:
# Assay type in all cases: biochemical
# [1] = target: T1, dipeptidyl peptidase IV obtainable from Xanthomonas maltophilia (Stenotrophomonas maltophilia, UniProt P95782); assay: Influence of metal ions on the enzyme activity; settings: substrate Gly-Pro-β-naphthylamide; for Relative activity (%): metal ion 1 mM, control 100
# Target sequence in this assay (P95782 21-741 limits assumed): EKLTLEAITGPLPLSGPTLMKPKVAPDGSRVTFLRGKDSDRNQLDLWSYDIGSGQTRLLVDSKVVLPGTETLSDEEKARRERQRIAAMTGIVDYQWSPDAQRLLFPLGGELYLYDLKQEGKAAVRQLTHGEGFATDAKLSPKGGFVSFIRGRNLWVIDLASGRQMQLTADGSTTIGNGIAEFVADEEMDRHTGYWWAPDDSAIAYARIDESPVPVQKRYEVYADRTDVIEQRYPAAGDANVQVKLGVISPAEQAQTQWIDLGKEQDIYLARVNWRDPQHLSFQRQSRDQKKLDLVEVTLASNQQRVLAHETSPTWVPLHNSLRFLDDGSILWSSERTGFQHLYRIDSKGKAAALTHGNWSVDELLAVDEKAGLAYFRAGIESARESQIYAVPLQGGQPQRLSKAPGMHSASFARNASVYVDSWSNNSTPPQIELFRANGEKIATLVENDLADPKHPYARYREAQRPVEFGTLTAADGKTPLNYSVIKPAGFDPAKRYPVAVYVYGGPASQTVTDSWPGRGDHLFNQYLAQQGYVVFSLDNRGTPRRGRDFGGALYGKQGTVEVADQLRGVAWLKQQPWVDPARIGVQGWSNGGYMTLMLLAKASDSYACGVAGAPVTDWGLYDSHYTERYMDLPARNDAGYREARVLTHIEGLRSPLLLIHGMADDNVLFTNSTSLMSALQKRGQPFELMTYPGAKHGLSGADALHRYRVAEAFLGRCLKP
# [2] = target: T1, dipeptidyl peptidase IV obtainable from Xanthomonas maltophilia; assay: Substrate specificity for low molecular weight synthetic peptide substrates; settings: for activity at 500 µM: read-out: Relative activity (%)
# Procedure: In the present invention, the dipeptidyl peptidase IV activity was measured according to the method of Yoshimoto et al. (J. Biochem., 91:1899-1906 (1982)).
# The used substrates are shown in Table 1, and the concentration thereof was 0.5 mM.
# Using Gly-Pro-β-naphthylamide as the substrate, 0.1 ml of 5 mM Gly-Pro-β-naphthylamide and 0.1 ml of an enzyme solution were added to 0.8 ml of 20 mM Tris-HCl buffer (pH 8.0) containing 5 mM EDTA and allowed to react with each other at 37° C. for 5 minutes, the reaction was terminated by adding 0.5 ml of Fast Garnet GBC (0.1% solution prepared by dissolving it in 1M acetate buffer (pH 4.0) containing 10% Triton X-100) and then absorbance at 550 nm was measured.
# [3] = target: T1, dipeptidyl peptidase IV obtainable from Xanthomonas maltophilia; assay: biochemical
# Target sequence in this assay (P95782 21-741 limits assumed): as above
# [4] = hydrolysis of the substrate by the enzyme, substrate concentration 0.5 mM
compound,measurement,setting,value
[Cl][Hg][Cl] [HgCl2],Inhibition of the enzyme activity by metal ion (in words),[1]; 1 mM,inhibited by HgCl2 almost completely
same,Relative activity (%),[1],0%
Gly--Pro--Ala,Relative activity (%),[2]; [4],40%
O=C(O)c1cc[c]([Hg][Cl])cc1 [PCMB],Relative activity (%),[3],96%
C[C@H](N)C(=O)N1CCC[C@H]1C(=O)Nc1ccc2ccccc2c1 [Ala--Pro-β-naphthy1amide] (H-Ala-Pro-βNA),activity at 500 µM,[2],105%
[Cl-].[Cl-].[Zn+2] [ZnCl2],Relative activity (%),[1],95%
"NCC(=O)N1CCC[C@H]1C(=O)Nc1ccc2ccccc2c1 [Gly--Pro-β-naphthylamide, Gly-Pro-β-naphthylamide] (H-Gly-Pro-βNA)",activity at 500 µM,[2]; [4],100%
Gly--Pro--Leu--Gly (GPLG; printed: Gly--Pro--Leu--Gly),Relative activity (%),[2]; [4],50%
O=C(O)CN(CCN(CC(=O)O)CC(=O)O)CC(=O)O [EDTA],activity at 5000 µM,[3]; read-out: Relative activity (%),100%
C[C@H](N)C(=O)N[C@@H](C)C(=O)Nc1ccc2ccccc2c1 [Ala--Ala-β-naphthylamide] (H-Ala-Ala-βNA),activity at 500 µM,[2]; [4],100%
[Cl][Ni][Cl] [NiCl2],Relative activity (%),[1],100%
